Test results taken from PMC12254266, “Multicolored sequential resonance energy transfer for detection of simultaneous ligand binding at G protein-coupled receptors” (Nature Communications, 2025).
Several values for one entry are separate records, joined by “and”; a condition that tells them apart may be missing. Equal values may be shown once.

Molecular target: FFA1-Nluc (Homo sapiens, UniProt O14842)
Test: DISCo-BRET (endpoint, spectra scan, kinetics) with TUG-2591 and TUG-2597 at C terminal Nluc tagged FFA1
Type: binding
Parameters: expressed in transfected cells
Settings: for pIC50 DISCo-BRET SulfoCy5/NBD: one site model
Method: Nluc-FFA1 or FFA1-Nluc Flp-In T-REx 293 cells were plated at 50,000 cells per well in poly-D-lysine coated white 96-well plates. Cells were cultured for 24 h in the plate before medium was replaced with medium containing 100 ng/mL of doxycycline to induce receptor expression. After culturing for a further 24 h, culture medium was removed, cells washed with HBSS and incubated in HBSS for 30 min. For all DISCo-BRET formats Nano-Glo substrate was then added at a 1:800 final dilution and cells incubated for 10 min. Following substrate addition experimental set up different among the three formats: endpoint, spectra scan, and kinetics.
For endpoint experiments all fluorescent and unlabelled ligands were added to the cells and incubated for 5 min at 37 °C. Luminescent emission was then measured using a CLARIOstar microplate reader with monochromator set at 450–60 nm (Nluc), 540−60 nm (NBD) and 690–100 nm (SulfoCy5). BRET ratios were then calculated as either SulfoCy5 emission divided by NBD emission, SulfoCy5 emission divided by Nluc emission, or NBD emission divided by Nluc emission.
For spectra scan experiments all indicated fluorescent and unlabelled ligands were added to the cells and cells incubated for 5 min at 37 °C. Luminescence emissions were then measured from each well of the plate from 440 nm – 740 nm with a 5 nm resolution using a CLARIOstar microplate. Luminescent emission spectra were then normalised as a percentage of the maximal Nluc emission peak ( ~ 460 nm), then subtracted with the spectrum obtained in the presence of high concentrations of ligands competing for both binding sites to obtain specific BRET binding spectra.
In kinetic DISCo-BRET experiments plates were placed directly in a CLARIOstar plate reader set to 25 °C 10 min after Nano-Glo substrate addition. Luminescent measurements were then taken with three sequential measurements per well with the monochromator set to 450–60 nm (Nluc), 540 - 60 nm (NBD) and 690–100 nm (SulfoCy5) taken in 20 or 30 s intervals. After 5 min of background measurements, the plate reader was paused for the first indicated fluorescent ligand(s) addition, before immediately returning the plate to the reader to continue luminescence readings. After 5 min, the reader was again paused to add the second fluorescent ligand (association assays) or competing ligand(s) (dissociation assays), before immediately continuing the measurements for the indicated time. Non-specific control binding was obtained by adding the indicated competing ligand(s) 5 min prior to the addition of the first fluorescent ligand.

[1] = 100 nM TUG-2591 and […] TUG-2597, NC = No competition

FFA1-Nluc, sequence (O14842 whole entry): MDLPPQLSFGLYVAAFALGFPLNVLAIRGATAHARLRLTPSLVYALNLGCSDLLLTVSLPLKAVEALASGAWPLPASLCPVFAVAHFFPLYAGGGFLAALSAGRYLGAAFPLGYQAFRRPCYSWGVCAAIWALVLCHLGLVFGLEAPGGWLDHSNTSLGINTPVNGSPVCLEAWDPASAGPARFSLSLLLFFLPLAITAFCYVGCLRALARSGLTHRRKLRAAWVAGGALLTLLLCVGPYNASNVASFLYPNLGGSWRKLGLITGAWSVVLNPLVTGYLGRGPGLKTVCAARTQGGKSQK

SMILES: CCCN1C(=O)c2ccccc2[C@@H](C(=O)O)[C@@H]1c1ccc(OCc2cccc(-c3ccc(OCCOCCNC(=O)OC(C)(C)C)cc3C)c2)cc1 (racemic) [TUG-2744]
- pIC50 DISCo-BRET SulfoCy5/NBD [1]: 6.2±0.07
- Specific BRET (690/540), % of control (log[Ligand] -5, Figure 4Aiii, single replicate values (technical duplicate)): 39.83 % of control and 31.90 % of control and 49.72 % of control and 41.62 % of control and 42.27 % of control and 54.60 % of control and 24.29 % of control and 24.93 % of control
- Specific BRET (540/450), % of control (log[Ligand] -5, Figure 4Biii, single replicate values (technical duplicate)): 137.97 % of control and 140.19 % of control and 93.19 % of control and 74.76 % of control
- Specific BRET (690/540), % of control (log[Ligand] -5.5, Figure 4Aiii, single replicate values (technical duplicate)): 37.03 % of control and 28.64 % of control and 34.65 % of control and 33.07 % of control and 31.01 % of control and 33.80 % of control and 21.95 % of control and 22.19 % of control
- Specific BRET (540/450), % of control (log[Ligand] -5.5, Figure 4Biii, single replicate values (technical duplicate)): 128.99 % of control and 129.28 % of control and 107.91 % of control and 104.11 % of control and 75.59 % of control and 66.37 % of control
- Specific BRET (690/540), % of control (log[Ligand] -6, Figure 4Aiii, single replicate values (technical duplicate)): 54.48 % of control and 58.02 % of control and 68.62 % of control and 58.61 % of control and 60.18 % of control and 39.48 % of control and 47.55 % of control and 54.64 % of control
- Specific BRET (540/450), % of control (log[Ligand] -6, Figure 4Biii, single replicate values (technical duplicate)): 100.93 % of control and 117.25 % of control and 87.18 % of control and 77.69 % of control and 68.48 % of control and 67.29 % of control
- Specific BRET (690/540), % of control (log[Ligand] -6.5, Figure 4Aiii, single replicate values (technical duplicate)): 81.72 % of control and 80.69 % of control and 83.13 % of control and 96.40 % of control and 81.56 % of control and 79.15 % of control and 75.55 % of control and 78.81 % of control
- Specific BRET (540/450), % of control (log[Ligand] -6.5, Figure 4Biii, single replicate values (technical duplicate)): 102.36 % of control and 114.39 % of control and 83.39 % of control and 83.86 % of control and 94.27 % of control and 96.38 % of control
- Specific BRET (690/540), % of control (log[Ligand] -7, Figure 4Aiii, single replicate values (technical duplicate)): 91.79 % of control and 92.91 % of control and 97.64 % of control and 109.79 % of control and 98.51 % of control and 104.19 % of control and 93.40 % of control and 97.61 % of control
- Specific BRET (540/450), % of control (log[Ligand] -7, Figure 4Biii, single replicate values (technical duplicate)): 116.11 % of control and 107.80 % of control and 95.73 % of control and 91.61 % of control and 84.18 % of control and 85.41 % of control
- Specific BRET (690/540), % of control (log[Ligand] -8, Figure 4Aiii, single replicate values (technical duplicate)): 103.08 % of control and 96.92 % of control and 107.31 % of control and 115.19 % of control and 106.98 % of control and 101.78 % of control and 103.46 % of control and 103.17 % of control
- Specific BRET (540/450), % of control (log[Ligand] -8, Figure 4Biii, single replicate values (technical duplicate)): 110.67 % of control and 105.51 % of control and 101.90 % of control and 100.00 % of control and 64.33 % of control and 77.86 % of control
- Specific BRET (690/540), % of control (log[Ligand] -9, Figure 4Aiii, single replicate values (technical duplicate)): 95.62 % of control and 111.25 % of control and 100.79 % of control and 103.71 % of control and 132.11 % of control
- Specific BRET (540/450), % of control (log[Ligand] -9, Figure 4Biii, single replicate values (technical duplicate)): 110.95 % of control and 125.84 % of control and 113.61 % of control and 148.10 % of control and 60.11 % of control and 65.92 % of control
- 'bottom' of the IC50 curve, DISCo-BRET SulfoCy5/NBD (percentage of binding obtained in the absence of competing ligand, 100 nM TUG-2591 and […] TUG-2597): 26%
- pKi DISCo-BRET SulfoCy5/NBD (using Kd TUG-2591 57 nM): 6.6±0.07

SMILES: CC/C=C\C/C=C\C/C=C\CCCCCCCC(=O)O [aLA, α-linolenic acid, reference compound]
- pIC50 DISCo-BRET NBD/Nluc [1]: ~ 2.9
- pIC50 DISCo-BRET SulfoCy5/NBD [1]: ~ 3.7
- Specific BRET (540/450), % of control (log[Ligand] -3.5, Figure 4Bi, single replicate values (technical duplicate)): 354.98 % of control and 422.66 % of control and 352.08 % of control and 364.14 % of control and 218.20 % of control and 190.12 % of control and 192.71 % of control and 171.70 % of control
- Specific BRET (540/450), % of control (log[Ligand] -4, Figure 4Bi, single replicate values (technical duplicate)): 179.15 % of control and 260.42 % of control and 251.25 % of control and 232.54 % of control and 120.10 % of control and 104.16 % of control and 145.44 % of control and 143.73 % of control
- Specific BRET (540/450), % of control (log[Ligand] -4.5, Figure 4Bi, single replicate values (technical duplicate)): 155.59 % of control and 151.36 % of control and 193.87 % of control and 183.26 % of control and 24.44 % of control and 77.47 % of control and 109.72 % of control and 124.03 % of control
- Specific BRET (690/540), % of control (log[Ligand] -4.5, technical duplicate): 81.41 % of control and 79.89 % of control and 110.36 % of control and 102.58 % of control and 55.19 % of control and 61.69 % of control and 79.93 % of control
- Specific BRET (540/450), % of control (log[Ligand] -5, Figure 4Bi, single replicate values (technical duplicate)): 123.87 % of control and 127.19 % of control and 164.97 % of control and 169.96 % of control and 63.60 % of control and 42.81 % of control and 103.55 % of control and 110.64 % of control
- Specific BRET (690/540), % of control (log[Ligand] -5, technical duplicate): 89.67 % of control and 83.59 % of control and 104.96 % of control and 115.39 % of control and 81.83 % of control and 84.93 % of control and 95.09 % of control and 92.80 % of control
- Specific BRET (540/450), % of control (log[Ligand] -5.5, Figure 4Bi, single replicate values (technical duplicate)): 115.11 % of control and 123.26 % of control and 154.99 % of control and 156.24 % of control and 24.44 % of control and 64.99 % of control and 93.96 % of control and 98.42 % of control
- Specific BRET (690/540), % of control (log[Ligand] -5.5, technical duplicate): 91.96 % of control and 95.98 % of control and 110.87 % of control and 118.78 % of control and 93.29 % of control and 101.24 % of control and 95.01 % of control and 95.16 % of control
- Specific BRET (540/450), % of control (log[Ligand] -6, Figure 4Bi, single replicate values (technical duplicate)): 117.22 % of control and 113.60 % of control and 140.23 % of control and 145.01 % of control and 35.88 % of control and 33.45 % of control and 94.09 % of control and 108.27 % of control
- Specific BRET (540/450), % of control (log[Ligand] -7, Figure 4Bi, single replicate values (technical duplicate)): 110.27 % of control and 80.36 % of control and 117.15 % of control and 115.28 % of control and 96.88 % of control and 77.82 % of control and 92.78 % of control and 101.71 % of control
- Specific BRET (690/540), % of control (log[Ligand] -7, technical duplicate): 92.39 % of control and 86.20 % of control and 111.87 % of control and 113.13 % of control and 97.73 % of control and 97.01 % of control and 100.19 % of control and 94.25 % of control
- Specific BRET (690/540), % of control (log[ligand] -6, technical duplicate): 86.09 % of control and 86.20 % of control and 111.62 % of control and 112.25 % of control and 100.93 % of control and 101.65 % of control and 99.73 % of control and 101.33 % of control
